Laboratory results published in patent US20140031227A1, “HERBICIDAL COMPOSITIONS COMPRISING 4-AMINO-3-CHLORO-5-FLUORO-6-(4-CHLORO-2-FLUORO-3-METHOXYPHENYL) PYRIDINE-2-CARBOXYLIC ACID OR A DERIVATIVE THEREOF AND GLYPHOSATE OR GLUFOSINATE” (DOW AGROSCIENCES LLC, priority 2012, published 2014).
Where a name gives a salt, the structure may show the parent alone.

Legend:
Assay type in all cases: in vivo
[1] = tested on: AVEFA (Avena fatua L., wild oat); test: Example III postemergence foliar-applied mixtures, row crop weeds (corn, soybean), greenhouse: AVEFA
Experimental: (§1) Seeds or nutlets of the desired test plant species were planted in a soil matrix prepared by mixing a loam or sandy loam soil (e.g., 43 percent silt, 19 percent clay, and 38 percent sand, with a pH of about 8.1 and an organic matter content of about 1.5 percent) and calcareous grit in an 80 to 20 ratio. The soil matrix was contained in plastic pots with a surface area of 84.6 square centimters (cm^2) and a volume of 560 cubic centimeters (cm^3). […] The plants were grown for 7-31 days (d) in a greenhouse with an approximate 15 hour (h) photoperiod which was maintained at about 23-29° C. during the day and 22-28° C. during the night. Nutrients (Peters Excel® 15-5-15 5-Ca 2-Mg) and water were added on a regular basis and supplemental lighting was provided with overhead metal halide 1000-Watt lamps as necessary. The plants were employed for testing when they reached the first, second, or third true leaf stage.
(§2) Treatments consisted of the acid or esters of 4-amino-3-chloro-5-fluoro-6-(4-chloro-2-fluoro-3-methoxy-phenyl)pyridine-2-carboxylic acid (Compound A), each formulated as an
(§3) SC (suspension concentrate), and various herbicidal components alone and in combination. Forms of compound A were applied on an acid equivalent basis.
(§4) Other herbicidal components were applied on an acid equivalent or active ingredient basis and included the 5-enolpyruvylshikimate-3-phosphate synthase (EPSPS)-inhibiting herbicide, glyphosate dimethylamine salt, formulated as Durango DMA® and the glutamine synthase (GS)-inhibiting herbicide, glufosinate ammonium, formulated as Ignite® 280.
(§5) For treatments comprised of formulated compounds, measured amounts of compounds were placed individually in 25 mL glass vials and diluted in a volume of 1.5% (v/v) Agri-dex® crop oil concentrate to obtain 6× stock solutions. […] Application solutions were prepared by adding an appropriate amount of each stock solution (typically 2 mL) and diluted to the appropriate final concentrations with the addition of an aqueous mixture of 1.5% (v/v) crop oil concentrate and water so that the final spray solutions contained 1.25% (v/v) crop oil concentrate.
(§6) All stock solutions and applications solutions were visually inspected for compound compatibility prior to application. Compound requirements are based upon a 12 mL application volume at a rate of 187 liters per hectare (L/ha). Formulated compounds were applied to the plant material with an overhead Mandel track sprayer equipped with 8002E nozzles calibrated to deliver 187 L/ha over an application area of 0.503 square meters (m^2) at a spray height of 18 to 20 inches (46 to 50 cm) above the average plant canopy height. Control plants were sprayed in the same manner with the solvent blank.
(§7) The treated plants and control plants were placed in a greenhouse as described above and watered by sub-irrigation to prevent wash-off of the test compounds. After approximately 2 weeks, the condition of the test plants as compared with that of the untreated plants was determined visually and scored on a scale of 0 to 100 percent where 0 corresponds to no injury or growth inhibition and 100 corresponds to complete kill.
(§8) The following equation was used to calculate the expected activity of mixtures containing two active ingredients, A and B: […]

[2] = tested on: ELEIN (Eleusine indica (L.) Gaertn., goosegrass); test: Example III postemergence foliar-applied mixtures, row crop weeds (corn, soybean), greenhouse: ELEIN
Experimental: as §1, §2, §3, §4, §5, §6, §7, §8

[3] = tested on: DIGSA (Digitaria sanguinalis (L.) Scop., large crabgrass); test: Example IV postemergence foliar-applied mixtures, general weed control, greenhouse: DIGSA
Experimental: as §1, with “Sun Gro Metro-Mix® 360 planting mixture, which typically has” for “a soil matrix prepared by mixing a loam or sandy loam soil (e.g., 43 percent silt, 19 percent clay, and 38 percent sand, with”, “6.0 to 6.8” for “about 8.1”, “30 percent,” for “1.5 percent) and calcareous grit in an 80 to 20 ratio. The soil matrix was contained”, “square” for “square centimters (cm^2) and a volume of 560 cubic”, “(cm^2).” for “(cm^3).”
(§9) Treatments consisted of the acid or the benzyl ester of 4-amino-3-chloro-5-fluoro-6-(4-chloro-2-fluoro-3-methoxy-phenyl)pyridine-2-carboxylic acid (Compound A), each formulated as an SC, and various herbicidal components alone and in combination. Forms of compound A were applied on an acid equivalent basis.
as §4
(§10) For treatments comprised of formulated compounds, measured amounts of compounds were placed individually in 25 mL glass vials and diluted in a volume of 1.25% (v/v) Agri-dex crop oil concentrated to obtain 12× stock solutions. […] Application solutions were prepared by adding an appropriate amount of each stock solution (typically 1 mL) and diluted to the appropriate final concentrations with the addition of 10 mL of an aqueous mixture of 1.25% (v/v) Agri-dex crop oil concentrate so that the final spray solutions contained 1.25% (v/v) Agri-dex crop oil concentrate.
as §6
as §7, with “3” for “2”
(§11) Colby's equation was used to determine the herbicidal effects expected from the mixtures (Colby, S. R. 1967. Calculation of the synergistic and antagonistic response of herbicide combinations. Weeds 15:20-22.) .

[4] = tested on: AMARE (Amaranthus retroflexus L., redroot pigweed); test: Example IV postemergence foliar-applied mixtures, general weed control, greenhouse: AMARE (Table 17, species inferred from b27)
Experimental: as §1, with “Sun Gro Metro-Mix® 360 planting mixture, which typically has” for “a soil matrix prepared by mixing a loam or sandy loam soil (e.g., 43 percent silt, 19 percent clay, and 38 percent sand, with”, “6.0 to 6.8” for “about 8.1”, “30 percent,” for “1.5 percent) and calcareous grit in an 80 to 20 ratio. The soil matrix was contained”, “square” for “square centimters (cm^2) and a volume of 560 cubic”, “(cm^2).” for “(cm^3).”
as §9, §4, §10, §6
as §7, with “3” for “2”
as §11

[5] = Compound A Acid alone, 7.5 gae/ha
[6] = Compound A Acid alone, 15 gae/ha
[7] = glufosinate ammonium alone, 28.25 gae/ha
[8] = glufosinate ammonium alone, 56.5 gae/ha

Compound: COc1c(Cl)ccc(-c2nc(C(=O)O)c(Cl)c(N)c2F)c1F [Compound A Acid, 4-amino-3-chloro-6-(4-chloro-2-fluoro-3-methoxyphenyl)-5-fluoropyridine-2-carboxylic acid]
- Visual Weed Control (%) - 16 DAA AVEFA Obs ([1]; Compound A Acid alone, 3.75 gae/ha): 0%
- Visual Weed Control (%) - 16 DAA AVEFA Obs [1, 5]: 0%
- Visual Weed Control (%) - 16 DAA AVEFA Obs [1, 6]: 10%
- Visual Weed Control (%) - 16 DAA ELEIN Obs [2, 5]: 10%
- Visual Weed Control (%) - 16 DAA ELEIN Obs [2, 6]: 10%

Compound: COc1c(Cl)ccc(-c2nc(C(=O)OCc3ccccc3)c(Cl)c(N)c2F)c1F [Compound A Benzyl Ester]
- Visual Weed Control (%) - 18 DAA DIGSA Obs ([3]; Compound A Benzyl Ester 2 gae/ha alone, 18 DAA): 0%
- Visual Weed Control (%) - 18 DAA DIGSA Obs ([3]; Compound A Benzyl Ester 4 gae/ha alone, 18 DAA): 0%
- Visual Weed Control (%) - 18 DAA DIGSA Obs ([3]; Compound A Benzyl Ester 8 gae/ha alone, 18 DAA): 0%
- Visual Weed Control (%) - 18 DAA DIGSA Obs ([3]; Compound A Benzyl Ester 16 gae/ha alone, 18 DAA): 0%
- Visual Weed Control (%) - 18 DAA DIGSA Obs ([3]; Compound A Benzyl Ester 32 gae/ha alone, 18 DAA): 30%
- Visual Weed Control (%) - 18 DAA DIGSA Obs ([3]; Compound A Benzyl Ester alone, 2 gae/ha): 0%
- Visual Weed Control (%) - 18 DAA DIGSA Obs ([3]; Compound A Benzyl Ester alone, 4 gae/ha): 0%
- Visual Weed Control (%) - 18 DAA DIGSA Obs ([3]; Compound A Benzyl Ester alone, 8 gae/ha): 0%
- Visual Weed Control (%) - 18 DAA DIGSA Obs ([3]; Compound A Benzyl Ester alone, 16 gae/ha): 0%
- Visual Weed Control (%) - 18 DAA DIGSA Obs ([3]; Compound A Benzyl Ester alone, 32 gae/ha): 30%
- Visual Weed Control (%) - 18 DAA AMARE Obs ([4]; Compound A Benzyl Ester 2 gae/ha alone): 50%
- Visual Weed Control (%) - 18 DAA AMARE Obs ([4]; Compound A Benzyl Ester 4 gae/ha alone): 60%
- Visual Weed Control (%) - 18 DAA AMARE Obs ([4]; Compound A Benzyl Ester 8 gae/ha alone): 85%
- Visual Weed Control (%) - 18 DAA AMARE Obs ([4]; Compound A Benzyl Ester 16 gae/ha alone): 85%
- Visual Weed Control (%) - 18 DAA AMARE Obs ([4]; Compound A Benzyl Ester 32 gae/ha alone): 100%

Compound: CP(=O)(O)CCC(N)C(=O)O (stereo not drawn) [Glufosinate ammonium salt, 2-amino-4-(hydroxymethylphosphinyl)butanoic acid monoammonium salt, reference compound]
- Visual Weed Control (%) - 16 DAA AVEFA Obs [1, 7]: 0%
- Visual Weed Control (%) - 16 DAA AVEFA Obs [1, 8]: 0%
- Visual Weed Control (%) - 16 DAA ELEIN Obs [2, 7]: 0%
- Visual Weed Control (%) - 16 DAA ELEIN Obs [2, 8]: 0%
- Visual Weed Control (%) - 16 DAA ELEIN Obs ([2]; glufosinate ammonium alone, 113 gae/ha): 10%
- Visual Weed Control (%) - 18 DAA DIGSA Obs ([3]; Glufosinate ammonium salt 225 gai/ha alone, 18 DAA): 25%
- Visual Weed Control (%) - 18 DAA AMARE Obs ([4]; Glufosinate ammonium salt 225 gai/ha alone): 50%
